Converted amounts (≈) assume the structure as drawn. The source made the active and inactive calls. No cut-off for these calls is given here.
Legend:
Staphylococcus aureus [1] = experiment: Antibacterial activity against methicillin-susceptible Staphylococcus aureus ATCC 25923 assessed as inhibition of bacterial growth measured for 18 hrs by OD600 based analysis; assay type: functional, organism-based
Cell membrane [2] = experiment: Induction of cell membrane depolarization in methicillin-resistant Staphylococcus aureus 19449 assessed as bacterial cells with polarized membrane potential at 2XMIC incubated for 25 to 30 mins by DiOC2(3) probe based flow cytometry (reference value: 98.8%); assay type: subcellular; settings: time 25-30 min
[3] = Intrinsic clearance in rat liver microsomes at 0.4 mg/ml preincubated for 10 mins followed by NADPH-regenerating system addition for 60 mins and measured per mg of protein by UPLC-MS analysis; assay type: ADME, Microsome; settings: time 70 min, read-out: CLH
Enterococcus faecium [4] = experiment: Bactericidal activity against vancomycin-resistant Enterococcus faecium clinical strain assessed as reduction in colony forming units incubated for 18 hrs in broth followed by culturing on agar plate for 24 hrs; assay type: functional; settings: time 42 hrs, read-out: MBC99.9
Staphylococcus aureus [5] = experiment: Antibacterial activity against methicillin-susceptible Staphylococcus aureus ATCC 25923 assessed as inhibition of bacterial growth incubated for 18 hrs by broth microdilution method; assay type: functional
Cell membrane [6] = experiment: Induction of cell membrane depolarization in Staphylococcus aureus Newman assessed as ratio of red to green fluorescence intensity at MIC incubated for 25 to 30 mins by DiOC2(3) probe based flow cytometry; assay type: subcellular; settings: time 25-30 min
Cell membrane [7] = experiment: Induction of cell membrane depolarization in methicillin-resistant Staphylococcus aureus 19449 assessed as bacterial cells with depolarized membrane potential at 4 times MIC incubated for 25 to 30 mins by DiOC2(3) probe based flow cytometry (reference value: 0.7%); assay type: subcellular; settings: time 25-30 min
Pseudomonas aeruginosa = experiment: Antibacterial activity against Pseudomonas aeruginosa ATCC 27853 assessed as inhibition of bacterial growth incubated for 18 hrs by broth microdilution method; assay type: functional
Staphylococcus aureus [8] = experiment: Bactericidal activity against vancomycin-intermediate Staphylococcus aureus ATCC 700699 assessed as log reduction of bacterial colony forming units at 4 times MIC incubated for 20 hrs in broth followed by culturing on agar plate for 24 hrs by time-killing assay; assay type: functional; settings: time 44 hrs
[9] = Cytotoxicity against human BJ cells assessed as reduction in cell viability incubated for 24 hrs by MTT assay; assay type: toxicity, cell-based
Staphylococcus aureus [10] = experiment: Antibacterial activity against methicillin-resistant Staphylococcus aureus clinical strain 19449 assessed as inhibition of bacterial growth incubated for 18 hrs by broth microdilution method; assay type: functional
Cell membrane [11] = experiment: Induction of cell membrane depolarization in Staphylococcus aureus Newman assessed as bacterial cells with depolarized membrane potential at MIC incubated for 25 to 30 mins by DiOC2(3) probe based flow cytometry (reference value: 1.6%); assay type: subcellular; settings: time 25-30 min
Staphylococcus aureus [12] = experiment: Ratio of MBC to MIC for methicillin-susceptible Staphylococcus aureus ATCC 25923; assay type: functional
Cell membrane [13] = experiment: Induction of cell membrane depolarization in vancomycin-resistant Enterococcus faecium clinical strain assessed as bacterial cells with depolarized membrane potential at 4 times MIC incubated for 25 to 30 mins by DiOC2(3) probe based flow cytometry (reference value: 0.8%); assay type: subcellular; settings: time 25-30 min
Staphylococcus aureus [14] = experiment: Antibacterial activity against vancomycin-intermediate Staphylococcus aureus ATCC 700699 assessed as inhibition of bacterial growth incubated for 18 hrs by broth microdilution method; assay type: functional
Enterococcus faecium [15] = experiment: Antibacterial activity against vancomycin-resistant Enterococcus faecium assessed as inhibition of bacterial growth incubated for 18 hrs by broth microdilution method; assay type: functional
Enterococcus faecium [16] = experiment: Ratio of MBC to MIC for vancomycin-resistant Enterococcus faecium clinical strain; assay type: functional
Staphylococcus aureus [17] = experiment: Ratio of MBC to MIC for biofilm producer Staphylococcus aureus RN450; assay type: functional
Staphylococcus aureus [18] = experiment: Bactericidal activity against vancomycin-intermediate Staphylococcus aureus ATCC 700699 assessed as reduction in colony forming units incubated for 18 hrs in broth followed by culturing on agar plate for 24 hrs; assay type: functional; settings: time 42 hrs, read-out: MBC99.9
Cell membrane [19] = experiment: Induction of cell membrane depolarization in methicillin-resistant Staphylococcus aureus 19449 assessed as bacterial cells with polarized membrane potential at MIC incubated for 25 to 30 mins by DiOC2(3) probe based flow cytometry (reference value: 98.8%); assay type: subcellular; settings: time 25-30 min
Cell membrane [20] = experiment: Induction of cell membrane depolarization in methicillin-resistant Staphylococcus aureus 19449 assessed as bacterial cells with polarized membrane potential at 4 times MIC incubated for 25 to 30 mins by DiOC2(3) probe based flow cytometry (reference value: 98.8%); assay type: subcellular; settings: time 25-30 min
Cell membrane [21] = experiment: Induction of cell membrane depolarization in methicillin-resistant Staphylococcus aureus 19449 assessed as bacterial cells with depolarized membrane potential at 2XMIC incubated for 25 to 30 mins by DiOC2(3) probe based flow cytometry (reference value: 0.7%); assay type: subcellular; settings: time 25-30 min
Cell membrane [22] = experiment: Induction of cell membrane depolarization in vancomycin-resistant Enterococcus faecium clinical strain assessed as ratio of red to green fluorescence intensity at MIC incubated for 25 to 30 mins by DiOC2(3) probe based flow cytometry; assay type: subcellular; settings: time 25-30 min
Cell membrane [23] = experiment: Induction of cell membrane depolarization in vancomycin-resistant Enterococcus faecium clinical strain assessed as bacterial cells with depolarized membrane potential at MIC incubated for 25 to 30 mins by DiOC2(3) probe based flow cytometry (reference value: 0.8%); assay type: subcellular; settings: time 25-30 min
Streptococcus pneumoniae = experiment: Antibacterial activity against Streptococcus pneumoniae ATCC 49619 assessed as inhibition of bacterial growth incubated for 18 hrs by broth microdilution method; assay type: functional
Staphylococcus aureus [24] = experiment: Bactericidal activity against methicillin-susceptible Staphylococcus aureus ATCC 25923 assessed as reduction in colony forming units incubated for 18 hrs in broth followed by culturing on agar plate for 24 hrs; assay type: functional; settings: time 42 hrs, read-out: MBC99.9
[25] = system: Staphylococcus epidermidis; experiment: Bactericidal activity against linezolid-resistant Staphylococcus epidermidis NIL 4399/19 assessed as reduction in colony forming units incubated for 18 hrs in broth followed by culturing on agar plate for 24 hrs; assay type: functional; settings: time 42 hrs, read-out: MBC99.9
Staphylococcus aureus [26] = experiment: Bactericidal activity against vancomycin-intermediate Staphylococcus aureus ATCC 700699 assessed as log reduction of bacterial colony forming units at 4 times MIC incubated for 8 hrs in broth followed by culturing on agar plate for 24 hrs by time-killing assay; assay type: functional; settings: time 32 hrs
Enterococcus faecalis = experiment: Antibacterial activity against Enterococcus faecalis ATCC 29212 assessed as inhibition of bacterial growth incubated for 18 hrs by broth microdilution method; assay type: functional
Staphylococcus aureus [27] = experiment: Ratio of MBC to MIC for vancomycin-intermediate Staphylococcus aureus ATCC 700699; assay type: functional
Cell membrane [28] = experiment: Induction of cell membrane depolarization in vancomycin-resistant Enterococcus faecium clinical strain assessed as bacterial cells with polarized membrane potential at 2XMIC incubated for 25 to 30 mins by DiOC2(3) probe based flow cytometry (reference value: 96.8%); assay type: subcellular; settings: time 25-30 min
[29] = system: Staphylococcus epidermidis; experiment: Antibacterial activity against methicillin-susceptible Staphylococcus epidermidis ATCC 12228 assessed as inhibition of bacterial growth incubated for 18 hrs by broth microdilution method; assay type: functional
[30] = Metabolic stability in rat liver microsomes assessed as parent compound remaining at 0.4 mg/ml preincubated for 10 mins followed by NADPH-regenerating system addition for 60 mins by UPLC-MS analysis; assay type: ADME, Microsome; settings: time 70 min, read-out: Stability
[31] = system: Staphylococcus epidermidis; experiment: Antibacterial activity against biofilm producer Staphylococcus epidermidis ATCC 35984 assessed as inhibition of bacterial growth incubated for 18 hrs by broth microdilution method; assay type: functional
Cell membrane [32] = experiment: Induction of cell membrane depolarization in methicillin-resistant Staphylococcus aureus 19449 assessed as ratio of red to green fluorescence intensity at MIC incubated for 25 to 30 mins by DiOC2(3) probe based flow cytometry; assay type: subcellular; settings: time 25-30 min

With `O=C(Nc1cccc(Cl)c1)NC1CCN(CCC(Oc2cccc(C(F)(F)F)c2)c2ccccc2)CC1` (racemic) as the molecule, how does the Activity (Staphylococcus aureus [1]) read?
Its Activity is “Active”.

And the Activity (Cell membrane [2])?
Its Activity is 0.1%.

What about the microsomal CLint [3] of the same molecule?
The microsomal CLint was 8.94 µL/min/mg.

And the MBC (Enterococcus faecium [4])?
Its MBC is 6.25 µg/mL (≈ 11.7 µM).

What about the MIC (Staphylococcus aureus [5]) of the same molecule?
Its MIC is 3.12 µg/mL (≈ 5.87 µM).

What about the Ratio (Cell membrane [6]) of the same molecule?
Its Ratio is 0.27.

And the Activity (Cell membrane [7])?
The Activity was 96.4%.

And the MIC (Pseudomonas aeruginosa)?
The MIC was greater than 12.5 µg/mL.

And the Activity (Staphylococcus aureus [8])?
The Activity was “>=3 log10CFU/ml”.

What about the IC50 at 24 h [9] of the same molecule?
Its IC50 at 24 h is greater than 25 µg/mL.

What about the MIC (Staphylococcus aureus [10]) of the same molecule?
Its MIC is 0.78 µg/mL (≈ 1.47 µM).

What about the Activity (Cell membrane [11]) of the same molecule?
The Activity was 89%.

What about the Ratio (Staphylococcus aureus [12]) of the same molecule?
Its Ratio is 4.

And the Activity (Cell membrane [13])?
Its Activity is 89.3%.

And the MIC (Staphylococcus aureus [14])?
The MIC was 3.12 µg/mL (≈ 5.87 µM).

What about the MIC (Enterococcus faecium [15]) of the same molecule?
Its MIC is 1.56 µg/mL (≈ 2.93 µM).

What about the Ratio (Enterococcus faecium [16]) of the same molecule?
The Ratio was 4.

And the Ratio (Staphylococcus aureus [17])?
Its Ratio is 4.

What about the MBC (Staphylococcus aureus [18]) of the same molecule?
The MBC was 12.5 µg/mL (≈ 23.5 µM).

And the Activity (Cell membrane [19])?
Its Activity is 6%.

And the Activity (Cell membrane [20])?
Its Activity is 0%.

And the Activity (Cell membrane [21])?
The Activity was 96.8%.

What about the Ratio (Cell membrane [22]) of the same molecule?
The Ratio was 0.2.

And the Activity (Cell membrane [23])?
Its Activity is 34.8%.

And the MIC (Streptococcus pneumoniae)?
Its MIC is 6.25 µg/mL (≈ 11.7 µM).

And the MBC (Staphylococcus aureus [24])?
The MBC was 12.5 µg/mL (≈ 23.5 µM).

And the MBC [25]?
Its MBC is 6.25 µg/mL (≈ 11.7 µM).

And the Activity (Staphylococcus aureus [26])?
The Activity was 2 log10CFU/ml.

And the MIC (Enterococcus faecalis)?
Its MIC is 1.56 µg/mL (≈ 2.93 µM).

And the Ratio (Staphylococcus aureus [27])?
Its Ratio is 4.

And the Activity (Cell membrane [28])?
The Activity was 0.3%.

What about the MIC [29] of the same molecule?
The MIC was 3.12 µg/mL (≈ 5.87 µM).

And the remaining at 1 h [30]?
Its remaining at 1 h is 95%.

What about the MIC [31] of the same molecule?
Its MIC is 1.56 µg/mL (≈ 2.93 µM).

What about the Ratio (Cell membrane [32]) of the same molecule?
The Ratio was 0.53.
